This note sets out measurements from patent publication US9169246B2, “Pyrazoloquinolinone derivatives, preparation thereof and therapeutic use thereof” (SANOFI, priority 2011, dated 2015).

The experiment deals with HUVEC cells. In words: Test of in vitro proliferation of HUVEC cells induced with FGF-2. The format is cell-based. To be noted: Homo sapiens, FGF-2 1 ng/ml induced proliferation, ATP luminescence, head says M, cells print nM. The procedure: The compounds according to the invention underwent biochemical studies in order to determine their capacity to inhibit the enzyme methionine-aminopeptidase2 (enzymatic test on isolated enzyme). […] Consequently, the compounds of the invention that show good activity in the MetAP2 enzymatic test were evaluated in a test of in vitro proliferation of HUVEC cells induced with FGF-2. […] After incubation for 48 hours, the medium is aspirated and replaced with the deprivation medium RPMI1640 mentioned previously. A second stimulation is then performed. The cells are again incubated at 37° C. in the presence of CO2. After incubation for 72 hours, the medium is again aspirated and 100 μl of Cell Titer-GLOTM Luminescent Cell Viability Assay (Promega, G7571) are added over 10 minutes. The amount of ATP present in the cells, measured using a luminometer, is proportional to the number cells per well corresponding to the cell proliferation.

Compound `O=c1c2cn[nH]c2c2ccc(-c3ccccc3F)cc2n1CC(F)(F)F` [Compound 3, 7-(2-fluorophenyl)-5-(2,2,2-trifluoroethyl)-1,5-dihydro-4H-pyrazolo[4,3-c]quinolin-4-one] gave an IC50 of 660 nM.

The compound `Cc1cc(-c2ccc3c4[nH]ncc4c(=O)n(CC(F)(F)F)c3c2)ccn1` [Compound 186, 7-(2-methylpyrid-4-yl)-5-(2,2,2-trifluoroethyl)-1,5-dihydro-4H-pyrazolo[4,3-c]quinolin-4-one] came in with an IC50 of 360 nM.
